Source: US20230183233A1, “Bicyclic Pyridin-2-one and pyrimidin-4-one Derivatives Useful As a Factor XIa Inhibitors” (Janssen Pharmaceutica NV, priority 2021, published 2023)
pKi: −log10 of the molar value. Like-named read-outs stand apart in the source and are kept apart here. 5‑FAM = 5-carboxyfluorescein (5-FAM) label at the N-terminus

Legend:
Format in all cases: biochemical
Factor XIa [1] = molecular target: T1, Factor XIa (Homo sapiens, UniProt P03951); experiment: Factor XIa inhibition assay utilizing a fluorophore-quencher pair peptide substrate (FLINT, kinetic read); details: peptide substrate cleaved by FXIa; fit to a substrate inhibition model
T1 sequence (P03951 388-625 limits assumed): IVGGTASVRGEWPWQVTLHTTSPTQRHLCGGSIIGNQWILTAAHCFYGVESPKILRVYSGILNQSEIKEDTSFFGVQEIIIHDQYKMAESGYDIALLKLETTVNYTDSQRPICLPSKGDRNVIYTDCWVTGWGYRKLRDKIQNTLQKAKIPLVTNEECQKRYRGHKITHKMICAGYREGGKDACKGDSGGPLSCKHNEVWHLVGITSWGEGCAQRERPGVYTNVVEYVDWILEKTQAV
T1 sequence (P03951 19-387 partner limits assumed): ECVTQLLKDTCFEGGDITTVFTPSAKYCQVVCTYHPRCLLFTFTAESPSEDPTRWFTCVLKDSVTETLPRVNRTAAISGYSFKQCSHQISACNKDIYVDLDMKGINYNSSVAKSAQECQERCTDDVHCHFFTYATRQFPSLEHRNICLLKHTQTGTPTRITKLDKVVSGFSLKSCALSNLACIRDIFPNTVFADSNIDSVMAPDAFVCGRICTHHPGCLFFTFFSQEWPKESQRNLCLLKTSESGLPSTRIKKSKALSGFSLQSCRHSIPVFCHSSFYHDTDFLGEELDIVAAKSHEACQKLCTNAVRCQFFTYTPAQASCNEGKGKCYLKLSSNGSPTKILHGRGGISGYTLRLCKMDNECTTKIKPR

Factor XIa [2] = molecular target: T1, Factor XIa; experiment: as above; details: read-out: FXIa KIN Inh IC50
From the text: Biological Example 1: Factor XIa Inhibition Assay Utilizing a Fluorophore-Quencher Pair Peptide Substrate A fluorescence intensity (FLINT) based assay was used to monitor inhibition of Factor XIa. The peptide substrate, 5Fam-[…]-K5Tamra (purchased from New England Peptide) was chosen based on the FXI sequence. Conversion of zymogen FXI to its activated form, FXIa, occurs by proteolytic cleavage by […] at two sites, Arg146 and Arg180. The custom peptide used in this assay was based on the Arg146 cleavage site of FXI. The peptide substrate was designed with a fluorophore-quencher pair, where the fluorescence is quenched until FXIa cleaves the 8-mer peptide after the Arg residue.
The 2× Factor XIa stock solution was prepared by diluting 6.562 μM stock in 1× assay buffer for a […].
Test compound(s) were run in an 11-point, 3-fold serial dilution with a final top compound concentration of 100 nM. Final DMSO in assay was 2%. FXIa was preincubated with compound for 30-minutes and then substrate was added to initiate the reaction. The assay was run with kinetic (KIN) reads at 5 min intervals over 30 minutes. […] More specifically, the assay was run as follows: • 100 nL of 0.01 mM test compound was dispensed into black 384-well non-binding Greiner BioOne 784900 plate for 0.1 μM final concentration; • 5 μL of 1× assay buffer was dispensed to column 24 (low control) and 5 μL 2× Factor XIa solution was dispensed to columns 1-23 (column 23 high control); • the plate was centrifuged with a “cover” plate at 500 rpm for 1 min • the plate was pre-incubated for 30 minutes at room temperature with plate covered; • 5 μL of 2× 5Fam-[…]-K5Tamra peptide substrate was dispensed into the entire plate, columns 1-24; • the plate was centrifuged with a “cover” plate at 500 rpm for 1 min; • the plate was read monitoring fluorescence intensity on the BMG PHERAStar at room temperature, using fluorescence module 485 nm/520 nm.
Percent inhibition (IC50) curves were generated per compound tested, and data was analyzed using a 4-parameter logistic fit using GeneData Screener. The relative fluorescence unit (RFU) values were normalized to percent inhibition using the following equation:
% inhibition=((HC−LC)−(compound−LC)/(HC−LC))*100 where LC—low control=mean signal of no Factor XIa or 100% inhibition of Factor XIa; HC—high control=mean signal of Factor XIa+5Fam-[…]-K5Tamra peptide substrate with DMSO only.
An 11-point dose response curve for the test compound(s) was generated using GENDATA to determine IC50 value based on the following equation:
Y=Bottom+(Top−Bottom)/(1+10^((log IC50−X)*HillSlope)) where Y is the % inhibition in the presence of X inhibitor concentration, Top=high control=mean signal of Factor XIa+5Fam-[…]-K5Tamra peptide substrate with DMSO only; Bottom=low control−mean signal of no Factor XIa or 100% inhibition of Factor XIa; HillSlope—Hill coefficient; and IC50=concentration of compound with 50% inhibition in relation to top/high control.

human plasma kallikrein = human plasma kallikrein (Homo sapiens, UniProt P03952); experiment: Kallikrein inhibition assay utilizing a quenched AMC peptide substrate (FLINT, kinetic read); details: read-out: Kallikrein KIN Inh IC50
Sequence of human plasma kallikrein (P03952 391-638 limits assumed): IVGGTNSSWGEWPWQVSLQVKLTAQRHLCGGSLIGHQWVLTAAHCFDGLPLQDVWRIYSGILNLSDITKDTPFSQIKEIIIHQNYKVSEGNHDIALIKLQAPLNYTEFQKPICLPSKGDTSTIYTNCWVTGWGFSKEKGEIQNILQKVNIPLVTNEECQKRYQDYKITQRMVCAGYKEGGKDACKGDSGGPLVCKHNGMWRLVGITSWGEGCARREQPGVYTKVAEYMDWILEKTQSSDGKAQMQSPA
Sequence of human plasma kallikrein (P03952 20-390 partner limits assumed): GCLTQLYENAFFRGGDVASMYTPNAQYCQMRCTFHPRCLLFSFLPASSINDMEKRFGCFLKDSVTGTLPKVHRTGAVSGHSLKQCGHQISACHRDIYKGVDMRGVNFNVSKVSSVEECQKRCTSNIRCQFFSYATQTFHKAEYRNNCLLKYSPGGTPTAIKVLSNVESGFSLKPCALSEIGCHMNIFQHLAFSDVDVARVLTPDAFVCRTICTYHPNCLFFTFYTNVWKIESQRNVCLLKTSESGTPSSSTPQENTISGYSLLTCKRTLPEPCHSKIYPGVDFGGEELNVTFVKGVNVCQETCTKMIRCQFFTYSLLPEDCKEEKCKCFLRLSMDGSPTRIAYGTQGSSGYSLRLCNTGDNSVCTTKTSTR

| Molecule | IC50 (Factor XIa [2]; values in nM) [nM] | IC50 (human plasma kallikrein; values given with μM) [µM] | IC50 (human plasma kallikrein; values in nM) [µM] | also measured |
| --- | --- | --- | --- | --- |
| 5Fam-KLTRAETV-K5Tamra ({5‑FAM}-KLTRAETVK-{5‑TAMRA}) ["The peptide substrate ... designed with a fluorophore-quencher pair", "based on the Arg146 cleavage site of FXI", purchased from New England Peptide] | – | – | – | pKi (Factor XIa [1]): 4.21; Km (Factor XIa [1]): 12.4 µM; kcat (Factor XIa [1]): 0.86 s⁻¹ |
| C[C@H]1C[C@@H](c2[nH]c(-c3ccc(N)nc3F)nc2F)n2c1cc(-c1c(-n3cnnn3)ccc(Cl)c1F)cc2=O (relative stereo) [Example 35, (1*S,3*S)-3-(2-(6-Amino-2-fluoropyridin-3-yl)-4-fluoro-1H-imidazol-5-yl)-7-(3-chloro-2-fluoro-6-(1H-tetrazol-1-yl)phenyl)-1-methyl-2,3-dihydroindolizin-5(1H)-one] | ~610 | 9.8 | – | – |
| C[C@H]1C[C@H](c2ncc(-c3ccc(N)nc3Cl)[nH]2)n2c1cc(-c1c(-n3cnnn3)ccc(Cl)c1F)cc2=O (relative stereo) [Example 37, (1*S,3*R)-3-(5-(6-Amino-2-chloropyridin-3-yl)-1H-imidazol-2-yl)-7-(3-chloro-2-fluoro-6-(1H-tetrazol-1-yl)phenyl)-1-methyl-2,3-dihydroindolizin-5(1H)-one] | 283 | 7.8 | – | – |
| C[C@H]1C[C@@H](c2ncc(-c3ccnc(CN)c3)[nH]2)n2c1cc(-c1c(-n3cnnn3)ccc(Cl)c1F)cc2=O (relative stereo) [Example 39, (1*S,3*S)-3-(5-(2-(Aminomethyl)pyridin-4-yl)-1H-imidazol-2-yl)-7-(3-chloro-2-fluoro-6-(1H-tetrazol-1-yl)phenyl)-1-methyl-2,3-dihydroindolizin-5(1H)-one] | – | – | – | IC50 (Factor XIa [2]; values given with μM): 6600 nM |
| CC1C[C@@H](c2ncc(-c3cnns3)[nH]2)n2c1nc(-c1c(-n3cnnn3)ccc(Cl)c1F)cc2=O (stereo in doubt) [Example 110, (6*S)-6-(5-(1,2,3-Thiadiazol-5-yl)-1H-imidazol-2-yl)-2-(3-chloro-2-fluoro-6-(1H-tetrazol-1-yl)phenyl)-8-methyl-7,8-dihydropyrrolo[1,2-a]pyrimidin-4(6H)-one] | 92.1 | 2.3 | – | – |

Further molecules by falling IC50 (Factor XIa [2]; values in nM), results first:

| IC50 (Factor XIa [2]; values in nM) [nM] | IC50 (human plasma kallikrein; values given with μM) [µM] | IC50 (human plasma kallikrein; values in nM) [µM] | Molecule | also measured |
| --- | --- | --- | --- | --- |
| 9 | – | 0.296 | C[C@H]1C[C@@H](c2ncc(-c3ccnn3C)[nH]2)n2c1nc(-c1c(-n3cnnn3)ccc(Cl)c1F)cc2=O (relative stereo) [Example 146, (6*S,8*S)-2-(3-Chloro-2-fluoro-6-(1H-tetrazol-1-yl)phenyl)-8-methyl-6-(5-(1-methyl-1H-pyrazol-5-yl)-1H-imidazol-2-yl)-7,8-dihydropyrrolo[1,2-a]pyrimidin-4(6H)-one] | – |
| 2.7 | – | 0.0392 | Nc1ccc(-c2cnc([C@H]3CC4(CC4)c4cc(-c5cc(Cl)ccc5-n5cnnn5)cc(=O)n43)[nH]2)c(F)n1 (single isomer, unassigned) [Example 3] | – |
| 0.3 | – | 0.0235 | C[C@H]1C[C@@H](c2ncc(-c3ccc(N)nc3F)[nH]2)n2c1nc(-c1c(-n3cnnn3)ccc(Cl)c1F)cc2=O (relative stereo) [Example 149, (6*S,8*S)-6-(5-(6-Amino-2-fluoropyridin-3-yl)-1H-imidazol-2-yl)-2-(3-chloro-2-fluoro-6-(1H-tetrazol-1-yl)phenyl)-8-methyl-7,8-dihydropyrrolo[1,2-a]pyrimidin-4(6H)-one] | – |
